Measurements from patent publication US11123432B2, “Antimicrobial insect repellent composition” (YEDITEPE UNIVERSITESi, priority 2016, dated 2021).
Read-outs that look alike come from different tables or passages of the source.

Key:
[1] = system: Adenovirus Type 5 (Av-5); format: cell-based, Human adenovirus type 5 Adenoid 75 strain; conditions: for reduction in virus titer: AV-5 (Table 4), ratio 1/1, 20° C., clean and contaminated media; for Ratio of reduction in virus titer: EBAAP; for EBAAP virüs titer: untreated virus titer 6.0
[2] = system: Poliovirus Type 1 (PV-1); format: cell-based, Poliovirus type 1 Chat strain; conditions: for reduction in virus titer: PV-1 (Table 5), ratio 1/1, 20° C., clean and contaminated media; for Ratio of reduction in virus titer: EBAAP; for EBAAP virus titer: untreated virus titer 5.0
[3] = result of many toxicity experiments; cited from earlier work
[4] = system: enteric bacteria; conditions: Bailey et al. (1980); cited from earlier work
[5] = system: Penicillium expansium; conditions: Qin et al. (2007); cited from earlier work
[6] = AV-5, 5 minutes, contaminated medium
[7] = AV-5, 60 minutes, contaminated medium
[8] = PV-1, 5 minutes, contaminated medium
[9] = PV-1, 60 minutes, contaminated medium

CCCCN(CCC(=O)OCC)C(C)=O [EBAAP, Ethyl Butyl acetylaminopropionate]
reduction in virus titer ([1]; 5 minutes): 2 log
reduction in virus titer ([1]; 60 minutes): 4 log
Ratio of reduction in virus titer ([1]; AV-5, 5 minutes, clean medium): 2.0 Logarithmic TCID50
EBAAP virüs titer ([1]; AV-5, 5 minutes, clean medium): 4.0 Logarithmic TCID50
Ratio of reduction in virus titer [1, 6]: 2.0 Logarithmic TCID50
EBAAP virüs titer [1, 6]: 4.0 Logarithmic TCID50
Ratio of reduction in virus titer ([1]; AV-5, 60 minutes, clean medium): 4.0 Logarithmic TCID50
EBAAP virüs titer ([1]; AV-5, 60 minutes, clean medium): 2.0 Logarithmic TCID50
Ratio of reduction in virus titer [1, 7]: 4.0 Logarithmic TCID50
EBAAP virüs titer [1, 7]: 2.0 Logarithmic TCID50
active against virus ([1]; AV-5, used undiluted, 20° C., 60 minute application): 99.9%
reduction in virus titer ([2]; 5 minutes): 2 log
reduction in virus titer ([2]; 60 minutes): 4 log
Ratio of reduction in virus titer ([2]; PV-1, 5 minutes, clean medium): 2.0 Logarithmic TCID50
EBAAP virus titer ([2]; PV-1, 5 minutes, clean medium): 3.0 Logarithmic TCID50
Ratio of reduction in virus titer [2, 8]: 2.0 Logarithmic TCID50
EBAAP virus titer [2, 8]: 3.0 Logarithmic TCID50
Ratio of reduction in virus titer ([2]; PV-1, 60 minutes, clean medium): 4.0 Logarithmic TCID50
EBAAP virus titer ([2]; PV-1, 60 minutes, clean medium): 1.0 Logarithmic TCID50
Ratio of reduction in virus titer [2, 9]: 4.0 Logarithmic TCID50
EBAAP virus titer [2, 9]: 1.0 Logarithmic TCID50
active against virus ([2]; PV-1, used undiluted, 20° C., 60 minute application): 99.9%
irritation on the skin [3]: does not cause irritation on the skin

OB(O)O [boric acid]
antibacterial activity [4]: has antibacterial activity

[K+].[K+].[O-]B1OB2OB([O-])OB(O1)O2 [potassium tetraborate]
minimum concentration preventing micelle growth [5]: 0.1%
